Converted amounts (≈) assume the structure as drawn.

Common to all, as to assay type: cell-based
In one experiment the test system is PV-1 (poliovirus). The experiment in a line: microbe, parasite or virus in culture. The note with it: Enterovirus C, 72 h, read-out: IC50 (50 percent inhibition of plaque formation), PV-1.
The next experiment relates to CS-21C (Coxsackie virus). The experiment in a line: organism not typed. The note with it: 72 hours at 37° C.; read-out: IC50 (50 percent inhibition of plaque formation), CS-21C.
Another experiment deals with RhV-14 (Rhinovirus). The experiment in a line: microbe, parasite or virus in culture. The note with it: Enterovirus; 120 hours at 32° C.; read-out: IC50 (50 percent inhibition of plaque formation), RhV-14.

As to `CC(C)S(=O)(=O)n1c(N)nc2ccc(C(=O)c3ccccc3F)cc21` [Example 11], the IC50 came out at 1.7 µg/mL (≈ 4.7 µM) with PV-1 (poliovirus) and 0.44 µg/mL (≈ 1.22 µM) in the experiment with CS-21C (Coxsackie virus).

Regarding `CC(C)S(=O)(=O)n1c(N)nc2ccc(C(=O)c3cccc(F)c3)cc21` [Example 3], the IC50 with RhV-14 (Rhinovirus) is 2.14 µg/mL (≈ 5.92 µM).

`CC(C)S(=O)(=O)n1c(N)nc2ccc(C(=O)c3cc(F)cc(F)c3)cc21` [Example 5]: the IC50 in the experiment with RhV-14 (Rhinovirus) came out at 3.9 µg/mL (≈ 10.3 µM).

On to `CC(C)S(=O)(=O)n1c(N)nc2ccc(C(=O)c3cc(F)ccc3F)cc21` [Example 20], for which the IC50 in the experiment with RhV-14 (Rhinovirus) is 1.32 µg/mL (≈ 3.48 µM); in the experiment on PV-1 (poliovirus), 0.19 µg/mL (≈ 0.501 µM).

For `CC(C)S(=O)(=O)n1c(N)nc2ccc(C(=O)c3ccc(OC(F)(F)F)cc3)cc21` [Example 6], the half-inhibitory concentration (IC50) in the experiment with RhV-14 (Rhinovirus) came to 0.329 µg/mL (≈ 0.77 µM).

The values above are taken from US5545653A (priority 1995, dated 1996).
